#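 Interpolation was linear, between the two tested concentrations surrounding the appropriate level; five concentrations were tested over 48 hours in 96-well plates. TGI: total growth inhibition.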
# Columns and labels:
# Assay in all cases: NCI anticancer screen, dose series, 48 h
# 786-0 renal = tested on: 786-0 renal
# A498 renal = tested on: A498 renal
# A549 NSCLC = tested on: A549 NSCLC
# ACHN renal = tested on: ACHN renal
# CAKI-1 renal = tested on: CAKI-1 renal
# DLD-1 colon = tested on: DLD-1 colon
# DMS 114 small cell lung = tested on: DMS 114 small cell lung
# DMS 273 small cell lung = tested on: DMS 273 small cell lung
# HCC-2998 colon = tested on: HCC-2998 colon
# HCT-116 colon = tested on: HCT-116 colon
# HCT-15 colon = tested on: HCT-15 colon
# HL-60(TB) leukemia = tested on: HL-60(TB) leukemia
# HOP-62 NSCLC = tested on: HOP-62 NSCLC
# HT29 colon = tested on: HT29 colon
# IGROV1 ovarian = tested on: IGROV1 ovarian
# K-562 leukemia = tested on: K-562 leukemia
# KM12 colon = tested on: KM12 colon
# KM20L2 colon = tested on: KM20L2 colon
# LOX IMVI melanoma = tested on: LOX IMVI melanoma
# LXFL 529 NSCLC = tested on: LXFL 529 NSCLC
# M14 melanoma = tested on: M14 melanoma
# M19-MEL melanoma = tested on: M19-MEL melanoma
# MALME-3M melanoma = tested on: MALME-3M melanoma
# MOLT-4 leukemia = tested on: MOLT-4 leukemia
# NCI-H226 lung = tested on: NCI-H226 lung
# NCI-H460 lung = tested on: NCI-H460 lung
# NCI-H522 lung = tested on: NCI-H522 lung
# OVCAR-3 ovarian = tested on: OVCAR-3 ovarian
# OVCAR-4 ovarian = tested on: OVCAR-4 ovarian
# OVCAR-5 ovarian = tested on: OVCAR-5 ovarian
# OVCAR-8 ovarian = tested on: OVCAR-8 ovarian
# RPMI-8226 leukemia = tested on: RPMI-8226 leukemia
# RXF 393 renal = tested on: RXF 393 renal
# SF-268 CNS = tested on: SF-268 CNS
# SF-295 CNS = tested on: SF-295 CNS
# SF-539 CNS = tested on: SF-539 CNS
# SK-MEL-2 melanoma = tested on: SK-MEL-2 melanoma
# SK-MEL-28 melanoma = tested on: SK-MEL-28 melanoma
# SK-MEL-5 melanoma = tested on: SK-MEL-5 melanoma
# SK-OV-3 ovarian = tested on: SK-OV-3 ovarian
# SN12C renal = tested on: SN12C renal
# SNB-19 CNS = tested on: SNB-19 CNS
# SNB-75 CNS = tested on: SNB-75 CNS
# SR leukemia = tested on: SR leukemia
# SW-620 colon = tested on: SW-620 colon
# U251 CNS = tested on: U251 CNS
# UACC-257 melanoma = tested on: UACC-257 melanoma
# UACC-62 melanoma = tested on: UACC-62 melanoma
# UO-31 renal = tested on: UO-31 renal
# BT-549 breast = tested on: BT-549 breast
# CCRF-CEM leukemia = tested on: CCRF-CEM leukemia
# DU-145 prostate = tested on: DU-145 prostate
# EKVX NSCLC = tested on: EKVX NSCLC
# HOP-92 NSCLC = tested on: HOP-92 NSCLC
# HS 578T breast = tested on: HS 578T breast
# MCF7 breast = tested on: MCF7 breast
# MDA-MB-231 breast = tested on: MDA-MB-231 breast
# MDA-MB-435 = tested on: MDA-MB-435
# MDA-N = tested on: MDA-N
# NCI-H23 lung = tested on: NCI-H23 lung
# NCI/ADR-RES ovarian = tested on: NCI/ADR-RES ovarian
# PC-3 prostate = tested on: PC-3 prostate
# T-47D breast = tested on: T-47D breast
# TK-10 renal = tested on: TK-10 renal
smiles,measurement,setting,value
Cc1[nH]c(=O)[nH]c1C(=O)c1ccc(-n2ccnc2)cc1,TGI,786-0 renal,> 100 µM
same,TGI,A498 renal,> 100 µM
same,TGI,A549 NSCLC,> 100 µM
same,TGI,ACHN renal,> 100 µM
same,TGI,CAKI-1 renal,> 100 µM
same,TGI,DLD-1 colon,> 100 µM
same,TGI,DMS 114 small cell lung,> 100 µM
same,TGI,DMS 273 small cell lung,> 100 µM
same,TGI,HCC-2998 colon,> 100 µM
same,TGI,HCT-116 colon,> 100 µM
same,TGI,HCT-15 colon,> 100 µM
same,TGI,HL-60(TB) leukemia,> 100 µM
same,TGI,HOP-62 NSCLC,> 100 µM
same,TGI,HT29 colon,> 100 µM
same,TGI,IGROV1 ovarian,> 100 µM
same,TGI,K-562 leukemia,> 100 µM
same,TGI,KM12 colon,> 100 µM
same,TGI,KM20L2 colon,> 100 µM
same,TGI,LOX IMVI melanoma,> 100 µM
same,TGI,LXFL 529 NSCLC,> 100 µM
same,TGI,M14 melanoma,> 100 µM
same,TGI,M19-MEL melanoma,> 100 µM
same,TGI,MALME-3M melanoma,> 100 µM
same,TGI,MOLT-4 leukemia,> 100 µM
same,TGI,NCI-H226 lung,> 100 µM
same,TGI,NCI-H460 lung,> 100 µM
same,TGI,NCI-H522 lung,> 100 µM
same,TGI,OVCAR-3 ovarian,> 100 µM
same,TGI,OVCAR-4 ovarian,> 100 µM
same,TGI,OVCAR-5 ovarian,> 100 µM
same,TGI,OVCAR-8 ovarian,> 100 µM
same,TGI,RPMI-8226 leukemia,> 100 µM
same,TGI,RXF 393 renal,> 100 µM
same,TGI,SF-268 CNS,> 100 µM
same,TGI,SF-295 CNS,> 100 µM
same,TGI,SF-539 CNS,> 100 µM
same,TGI,SK-MEL-2 melanoma,> 100 µM
same,TGI,SK-MEL-28 melanoma,> 100 µM
same,TGI,SK-MEL-5 melanoma,> 100 µM
same,TGI,SK-OV-3 ovarian,> 100 µM
same,TGI,SN12C renal,> 100 µM
same,TGI,SNB-19 CNS,> 100 µM
same,TGI,SNB-75 CNS,> 100 µM
same,TGI,SR leukemia,> 100 µM
same,TGI,SW-620 colon,> 100 µM
same,TGI,U251 CNS,> 100 µM
same,TGI,UACC-257 melanoma,> 100 µM
same,TGI,UACC-62 melanoma,> 100 µM
same,TGI,UO-31 renal,> 100 µM
CSc1nc2c(c(N3CCOCC3)n1)C(O)n1c(nc3ccccc31)S2 (centres undefined),TGI,786-0 renal,> 100 µM
same,TGI,A498 renal,> 100 µM
same,TGI,A549 NSCLC,> 100 µM
same,TGI,ACHN renal,> 100 µM
same,TGI,BT-549 breast,> 100 µM
same,TGI,CAKI-1 renal,> 100 µM
same,TGI,CCRF-CEM leukemia,> 100 µM
same,TGI,DU-145 prostate,> 100 µM
same,TGI,EKVX NSCLC,> 100 µM
same,TGI,HCC-2998 colon,> 100 µM
same,TGI,HCT-116 colon,> 100 µM
same,TGI,HCT-15 colon,> 100 µM
same,TGI,HL-60(TB) leukemia,> 100 µM
same,TGI,HOP-62 NSCLC,> 100 µM
same,TGI,HOP-92 NSCLC,> 100 µM
same,TGI,HS 578T breast,92.7 µM
same,TGI,HT29 colon,> 100 µM
same,TGI,IGROV1 ovarian,> 100 µM
same,TGI,KM12 colon,> 100 µM
same,TGI,LOX IMVI melanoma,> 100 µM
same,TGI,M14 melanoma,> 100 µM
same,TGI,MALME-3M melanoma,> 100 µM
same,TGI,MCF7 breast,> 100 µM
same,TGI,MDA-MB-231 breast,> 100 µM
same,TGI,MDA-MB-435,> 100 µM
same,TGI,MDA-N,> 100 µM
same,TGI,MOLT-4 leukemia,> 100 µM
same,TGI,NCI-H23 lung,> 100 µM
same,TGI,NCI-H460 lung,> 100 µM
same,TGI,NCI-H522 lung,> 100 µM
same,TGI,NCI/ADR-RES ovarian,> 100 µM
same,TGI,OVCAR-3 ovarian,> 100 µM
same,TGI,OVCAR-4 ovarian,> 100 µM
same,TGI,OVCAR-5 ovarian,> 100 µM
same,TGI,OVCAR-8 ovarian,> 100 µM
same,TGI,PC-3 prostate,> 100 µM
same,TGI,RPMI-8226 leukemia,> 100 µM
same,TGI,RXF 393 renal,> 100 µM
same,TGI,SF-268 CNS,> 100 µM
same,TGI,SF-295 CNS,> 100 µM
same,TGI,SF-539 CNS,8.77 µM
same,TGI,SK-MEL-2 melanoma,> 100 µM
same,TGI,SK-MEL-5 melanoma,8.41 µM
same,TGI,SK-OV-3 ovarian,> 100 µM
same,TGI,SN12C renal,> 100 µM
same,TGI,SNB-19 CNS,> 100 µM
same,TGI,SNB-75 CNS,81.9 µM
same,TGI,SR leukemia,> 100 µM
same,TGI,SW-620 colon,> 100 µM
same,TGI,T-47D breast,> 100 µM
same,TGI,TK-10 renal,> 100 µM
same,TGI,U251 CNS,> 100 µM
same,TGI,UACC-257 melanoma,> 100 µM
same,TGI,UACC-62 melanoma,> 100 µM
same,TGI,UO-31 renal,> 100 µM

# Reference: PubChem BioAssay (NCI)
